According to US20240212786A1, “METHOD OF DISCOVERING NOVEL ANTICANCER DRUG USING CO-ESSENTIALITY NETWORK, AND AN APPARATUS THEREOF” (POSTECH RESEARCH AND BUSINESS DEVELOPMENT FOUNDATION, priority 2022, published 2024):
Structures can show the parent of a compound that is named as a salt.

Key:
[1] = tested on: cancer cell lines of COADREAD; details: median over COADREAD cancer cell lines, PRISM secondary screen data; cited from earlier work
[2] = tested on: COADREAD differential gene expression; 15 large intestine cancer cell lines; test: Reversal gene expression (RGE) effect from CMap L1000 profiles; format: cell-based
Source text: To estimate the efficacy of the drug by altering the gene expression to be a reversal of that in cancer conditions, the present inventors used the L1000 dataset from CMap[9]. From the L1000 dataset, the present inventors obtained 6,056 compounds with PubChem IDs and expression profiles for 978 genes directly measured in 15 cancer cell lines whose primary site was the large intestine: CL34, HCT116, HELA, HT115, HT29, LOVO, MDST8, NCIH508, NCIH716, RKO, SNU1040, SNUC5, SW480, SW620, and SW948. The present inventors initially computed the RGE effect between the differential gene expression of COADREAD (obtained via CREEDS[10], signature ID: dz552) and the compound's transcriptional profile using Zhang's connection score, that is, the absolute value of the anti-correlated, standardized ranked connection score. Since drugs have multiple transcriptional profiles for each cell line depending on the treatment dose and time, the present inventors calculated the max RGE effect for each cell line and used the median RGE effect across cell lines as a representative value. Finally, the performance of the network in predicting the drug's RGE effect was measured using the Spearman correlation coefficient between the TC score and the RGE effect of drugs that exist in both PanDrugs and CMap.

Huh7 cells = test: MTS cell viability assay, Huh7; format: cell-based; details: Homo sapiens, Huh-7, 72 h
Protocol: (§1) The human LIHC cell lines SNU398, SK-HEP-1, and Huh7 were obtained from the Korean Cell Line Bank (Scoul, Korea), and HepG2 cells were obtained from the American Type Culture Collection (Manassas, VA, USA). SNU398 and Huh7 were cultured in Roswell Park Memorial Institute (RPMI) 1640 medium (Welgene) supplemented with 10% fetal bovine serum (FBS, Merck), 100 IU/mL penicillin, and 100 μg/mL streptomycin (Welgene). SK-HEP-1 and HepG2 were maintained in Eagle's Minimum Essential medium (EMEM, Lonza) supplemented with 10% FBS. All cells were incubated at 37° C. in a humidified incubator with 5% CO2.
(§2) To assess cell viability, SNU398, SK-HEP-1, Huh7, and HepG2 cells were plated in 96-well plates at a density of 8×10^3 or 1×10^4 cells per well. […] After incubation for 72 h, cell viability was determined using the phenazine methosulfate (PMS)/3-(4,5-dimethylthiazol-2-yl)-5-(3-carboxymethoxyphenyl)-2-(4-sulfophenyl)-2H-tetrazolium, inner salt (MTS) assay using the Cell Titer 96 Aqueous Non-Radioactive Cell Proliferation Assay kit (Promega, Madison, WI, USA) according to the manufacturer's instructions. The absorbance at 490 nm was measured using a microplate reader (Multiskan SkyHigh Microplate Spectrophotometer, Thermo Scientific). IC50 values were calculated from dose-response curves using GraphPad Prism 9 (GraphPad Software).

SNU398 cells = test: MTS cell viability assay, SNU398; format: cell-based; details: Homo sapiens, SNU-398, 72 h
Protocol: as §1, §2

SK-HEP-1 cells = test: MTS cell viability assay, SK-HEP-1; format: cell-based; details: Homo sapiens, SK-HEP1, 72 h
Protocol: as §1, §2

HepG2 cells = test: MTS cell viability assay, HepG2; format: cell-based; details: Homo sapiens, 72 h
Protocol: as §1, §2

Structure (SMILES)	IC50 [1]	rank percentile of RGE effect ([2]; COADREAD)	RGE effect ([2]; median across cell lines of max RGE effect, Zhang's connection score, COADREAD signature)	IC50 (Huh7 cells)	IC50 (SNU398 cells)	IC50 (SK-HEP-1 cells)	IC50 (HepG2 cells)
Cn1c(=O)c(F)c(Nc2ccc(I)cc2F)c2c(=O)n(C[C@@H](O)CO)cnc21 [TAK-733]	1.03 nM	91.18%	0.123				
CC(C)C[C@H](NC(=O)CNC(=O)c1cc(Cl)ccc1Cl)B1OC(=O)C(CC(=O)O)(CC(=O)O)O1 [ixazomib citrate]				137 nM	746 nM	270 nM	197 nM
